This experiment has as its system Rhizoctonia solani. The experiment is described as follows: Soybean seed treatment test in soil contaminated by Rhizoctonia solani (disease control efficacy). As to conditions: carboxamide compound alone 0.2 g/100 kg of seeds, no thiodicarb, soybean cultivated 20 days in soil contaminated by Rhizoctonia solani, efficacy vs non-treated plot. The class given is in vivo, Rhizoctonia solani on soybean (variety: Natto shoryu). The protocol: A cyclohexanone solution (100 microL) containing prescribed amount (weight) of a test compound was applied on seeds of soybean (variety:Natto shoryu) (10 g) by using a rotary apparatus for seed treatment (Seed dresser, manufactured by Hans-Ulrich Hege GmbH).
One day after the application, plastic pot was filled with soil contaminated by Rhizoctonia solani, and the seeds treated with the test compounds were seeded in the soil and cultivated in a glass-greenhouse for 20 days (hereinafter referred to as “treated plot”).
Thereafter, the presence of disease caused by Rhizoctonia solani in the young plants which germinated from each seed was observed and disease severity was calculated according to the following calculation formula (1).
On the other hand, seeds of soybean which were not treated as above were cultivated in the same way as above (hereinafter referred to as “non-treated plot”) and the disease severity in “non-treated plot” was calculated in the same way as the above “treated plot”. On the basis of the above disease severity in “treated plot” and “non-treated plot”, efficacy in “treated plot” was evaluated according to the following calculation formula (2). […]

In the case of `CC1CC(C)(C)c2cccc(NC(=O)c3cn(C)nc3C(F)F)c21` (stereo not shown) [carboxamide compound (1)], the “efficacy (%)” value is given as 47.4%.

The record behind these values is patent US9363998B2, “Pesticidal composition and its use” (SUMITOMO CHEMICAL COMPANY, LIMITED, priority 2010, dated 2016).
